Test results as given in publication PMC10648877, “Novel Substituted Azoloazines with Anticoagulant Activity” (International Journal of Molecular Sciences, 2023).
“And” between values parts separate entries of the source, which are not always exact repeats. Identical values can stand only once.

What was measured:
[1] = test system: platelet-poor plasma (PPP); experiment: Activated partial thromboplastin time (APTT), rabbit blood coagulogram in vitro; assay type: biochemical; details: 100 μM; for APTT: M ± m, n = 6;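 for all read-outs here: clotting time read chronometrically on a hemocoagulometer with commercial reagent kits, one of several coagulogram parameters alongside thrombin and prothrombin time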
Protocol: Test compounds and the reference drug were evaluated at a concentration of 100 μM. Effect on rabbit blood coagulograms in vitro was determined chronometrically with a SOLAR hemocoagulometer (Minsk, Belarus) using commercial kits (Technology-Standard, Barnaul, Russia) as per the manufacturer’s instructions. The following parameters were determined: activated partial thromboplastin time, thrombin time, and prothrombin time.

LPS-treated PPP [2] = experiment: APTT, rabbit blood treated with LPS in vitro (hypercytokinemia); assay type: biochemical; details: 100 μM; for APTT: rabbit blood treated with LPS in vitro
Protocol: (§1) Hypercytokinemia conditions were modeled by incubation of whole blood with S. typhimurium LPS (Sigma Aldrich, St. Louis, MO, USA) at a final concentration of 20 ng/mL and subsequent preparation of PPP.

LPS-treated PPP [3] = experiment: Thrombin time, rabbit blood treated with LPS in vitro (hypercytokinemia); assay type: biochemical; details: for Δ % of Thrombin Time Prolongation Relative To Control + LPS: with LPS; for prolongation of thrombin time relative to LPS-treated blood control: LPS-treated rabbit blood in vitro
Protocol: as §1
(§2) The calculation of EC50 (effective concentration that prolongs the time of clot formation by 50%) was performed using linear regression analysis.

LPS-treated PPP [4] = experiment: Prothrombin time, rabbit blood treated with LPS in vitro (hypercytokinemia); assay type: biochemical; details: 100 μM
Protocol: as §1

[5] = test system: platelet-poor plasma (PPP); experiment: Ecarin clotting time in vitro; assay type: biochemical; details: for EC50: concentration range 100 to 1 μM
Protocol: The ecarin clotting time was designed for the determination of antithrombin anticoagulant activity in platelet-poor plasma. Venous blood was collected into a 15 mL Falcon type plastic tube with 3.8% sodium citrate solution (0.5 mL of sodium citrate per 5 mL of blood), centrifuged on a CM-6M centrifuge (Elmi, Riga, Latvia) at room temperature from 18 to 25 °C for 15 min at 3000 rpm (1200× g). The obtained plasma was withdrawn using an automatic pipette and transferred to a separate clean, dry plastic tube. After that, the obtained plasma was recentrifuged under the same conditions and the upper third of the plasma was taken for analysis.
The ecarin stock solution (STA-ECT, Stago, Düsseldorf, Germany) was prepared according to the manufacturer’s instructions and diluted to 4 units/mL with HEPES-buffered saline (0.2 M) containing 0.025 M calcium chloride.
The tested samples were investigated in the concentration range from 100 to 1 μM for IC50 determination.
Prepared reagents and platelet-poor plasma were heated to 37 °C. The assay was performed on a Solar CGL2120 coagulometer (Belarus), adding 50 µL of the reagent ecarin to 100 µL of PPP and recording the clotting time.
as §2

coagulograms of rats [6] = experiment: APTT after single intragastric administration, rats without hypercytokinemia; assay type: in vivo, rat; details: dabigatran etexilate 12 mg/kg; for prolongation of APTT compared to the control: intact rats, 2 h after intragastric administration, 5d 5.5 mg/kg; for APTT: rats without hypercytokinemia, single intragastric dose, 2 h, 5d 5.5 mg/kg (equimolar)
Protocol: (§3) Distilled water was used as a solvent. In all experiments, control animals were injected with an equivalent volume of a vehicle. The reference drug dabigatran etexilate was administered to rats 2 h before the study at a 12 mg/kg dose (equivalent to the human dose, taking into account the interspecies conversion factor). Compound 5d was administered to rats 2 h before the study in a 5.5 mg/kg dose, equimolar to the dose of dabigatran etexilate.
(§4) To stabilize the blood, a 3.8% aqueous solution of sodium citrate (pH 6.0) was used in a ratio of 9:1. Coagulogram parameters of platelet-poor plasma were measured with a SOLAR coagulometer according to the methods described above.

coagulograms of rats [7] = experiment: Thrombin time after single intragastric administration, rats without hypercytokinemia; assay type: in vivo, rat; details: dabigatran etexilate 12 mg/kg; for increase of thrombin time relative to intact control: intact rats, 2 h after intragastric administration, 5d 5.5 mg/kg; for TT: rats without hypercytokinemia, single intragastric dose, 2 h, 5d 5.5 mg/kg (equimolar)
Protocol: as §3, §4

coagulograms of rats [8] = experiment: Prothrombin time after single intragastric administration, rats without hypercytokinemia; assay type: in vivo, rat; details: for PT: single intragastric dose, 2 h, dabigatran etexilate 12 mg/kg, 5d 5.5 mg/kg (equimolar)
Protocol: (§5) Distilled water was used as a solvent. In all experiments, control animals were injected with an equivalent volume of a vehicle. The reference drug dabigatran etexilate was administered to rats 2 h before the study at a 12 mg/kg dose (equivalent to the human dose, taking into account the interspecies conversion factor).
(§6) Coagulogram parameters of platelet-poor plasma were measured with a SOLAR coagulometer according to the methods described above.

coagulograms of rats [9] = experiment: APTT after single intragastric administration, rats with hypercytokinemia (LPS); assay type: in vivo, rat; details: dabigatran etexilate 12 mg/kg; for prolongation of APTT in relation to the LPS control group: LPS-injected rats, 5d 5.5 mg/kg intragastric; for APTT: rats with hypercytokinemia (LPS 2 mg/kg i.v.), single intragastric dose, 2 h, 5d 5.5 mg/kg
Protocol: as §3, §4
(§7) Hypercytokinemia conditions were modeled by an intravenous injection of S. typhimurium LPS (Sigma Aldrich, St. Louis, MO, USA) at a final dose of 2 mg/kg into the tail vein of the rats 2 h before the administration of the substances. The evaluation of anticoagulant activity was conducted according to the methods described above.

coagulograms of rats [10] = experiment: Thrombin time after single intragastric administration, rats with hypercytokinemia (LPS); assay type: in vivo, rat; details: for increase of thrombin time in relation to the LPS control group: LPS-injected rats, 5d 5.5 mg/kg intragastric; for antithrombin effect under systemic inflammation reaction versus its absence: rats, single intragastric administration
Protocol: as §3, §4, §7

coagulograms of rats [11] = experiment: Prothrombin time after single intragastric administration, rats with hypercytokinemia (LPS); assay type: in vivo, rat; details: for PT: rats with hypercytokinemia (LPS 2 mg/kg i.v.), single intragastric dose, 2 h, dabigatran etexilate 12 mg/kg, 5d 5.5 mg/kg; for effect on prothrombin time: rats with systemic inflammatory reaction (LPS)
Protocol: as §5, §6, §7

[12] = test system: platelet-poor plasma (PPP); experiment: Thrombin time (TT), rabbit blood coagulogram in vitro; assay type: biochemical; details: for Δ% of Thrombin Time Prolongation Relative to Control / EC50: without LPS; for TT: M ± m, n = 6; for EC50: concentration that prolongs clot formation time by 50%, read-out: EC50, μM (thrombin time prolongation)
[13] = test system: platelet-poor plasma (PPP); experiment: Prothrombin time (PT), rabbit blood coagulogram in vitro; details: 100 μM; for PT: M ± m, n = 6;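 for all read-outs here: clotting time read chronometrically on a hemocoagulometer using commercial reagent kits, with dabigatran etexilate at the same concentration as reference anticoagulant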
Protocol: The study was performed on platelet-poor plasma (PPP) stabilized with a 3.8% sodium citrate solution in a ratio of 9:1 according to the method described in [34]. Dabigatran etexilate (Boehringer Ingelheim Pharma GmbH and Co., Ingelheim am Rhein, Germany) was used as the reference drug. Test compounds and the reference drug were evaluated at a concentration of 100 μM. Effect on rabbit blood coagulograms in vitro was determined chronometrically with a SOLAR hemocoagulometer (Minsk, Belarus) using commercial kits (Technology-Standard, Barnaul, Russia) as per the manufacturer’s instructions. The following parameters were determined: activated partial thromboplastin time, thrombin time, and prothrombin time.

[14] = rats with hypercytokinemia (LPS 2 mg/kg i.v.), single intragastric dose, 2 h, dabigatran etexilate 12 mg/kg, 5d 5.5 mg/kg

Row | SMILES | increase of APTT relative to the control [1] | APTT [1] | APTT (LPS-treated PPP [2]) | Δ % of Thrombin Time Prolongation Relative To Control + LPS (LPS-treated PPP [3]; 1 μM) | Δ % of Thrombin Time Prolongation Relative To Control + LPS (LPS-treated PPP [3]; 5 μM) | Δ % of Thrombin Time Prolongation Relative To Control + LPS (LPS-treated PPP [3]; 10 μM) | prolongation of thrombin time relative to LPS-treated blood control (LPS-treated PPP [3]; 100 μM) | PT (LPS-treated PPP [4]) | ecarin clotting time ([5]; 1 μM) | ecarin clotting time ([5]; 10 μM) | EC50 [5] | prolongation of APTT compared to the control (coagulograms of rats [6]) | APTT (coagulograms of rats [6]) | increase of thrombin time relative to intact control (coagulograms of rats [7]) | TT (coagulograms of rats [7]) | PT (coagulograms of rats [8]) | prolongation of APTT in relation to the LPS control group (coagulograms of rats [9]) | APTT (coagulograms of rats [9]) | increase of thrombin time in relation to the LPS control group (coagulograms of rats [10]; dabigatran etexilate 12 mg/kg) | antithrombin effect under systemic inflammation reaction versus its absence (coagulograms of rats [10]) | other results
1 | C1=C(c2cccs2)n2ncnc2NC1c1cccs1 (stereo not drawn) [Compound 5d, 7,5-Di(2-thienyl)-4,5-dihydro-[1,2,4]triazolo[1,5-a]pyrimidine] | 1.3 times | 61.78 ± 4.58 s | 61.78 ± 4.58 s | 56.3% and 56.3 ± 1.1 % | 234.1% and 234.1 ± 4.2 ^#$ % | 354.1% and 354.1 ± 6.5 ^#$ % | 17.0 times | 14.08 ± 0.4 s | 40.2 s | 50.5 s | 17900 nM | 1.5 times | 59.2 ± 8.3 s | 5.6 times | 325.3 ± 5.1 s | 24.5 ± 1.1 s | 1.6 times | 28.7 ± 1.0 s | 14.5 times | twice as pronounced | ecarin clotting time ([5]; 100 μM): 81.3 s; TT, s (coagulograms of rats [10]; [14]): 640.3 ± 7.4 ^#$ s; PT (coagulograms of rats [11]): 26.4 ± 1.4 s; effect on prothrombin time (coagulograms of rats [11]): neither the test compound nor dabigatran etexilate had an effect; Δ% of Thrombin Time Prolongation Relative to Control ([12]; 1 μM): 46.5% and 46.5 ± 6.7 %; Δ% of Thrombin Time Prolongation Relative to Control ([12]; 5 μM): 194.1% and 194.1 ± 10.0 %; Δ% of Thrombin Time Prolongation Relative to Control ([12]; 10 μM): 467.1% and 467.1 ± 14.4 %; TT ([12]; rabbit blood in vitro, 100 μM): 154.43 ± 11.14 s; prolongation of thrombin time exceeding dabigatran etexilate ([12]; rabbit blood in vitro, 100 μM, versus reference drug): 2.2 times; EC50 [12]: 1.25 µM and 1.3 µM; effect on prothrombin time [13]: did not affect the prothrombin time; PT [13]: 14.08 ± 0.4 s
2 | CCCCCCOC(=O)N=C(N)c1ccc(NCc2nc3cc(C(=O)N(CCC(=O)OCC)c4ccccn4)ccc3n2C)cc1 [Dabigatran etexilate, reference compound] | 1.6 times | 75.26 ± 2.61 s | 135.13 ± 15.17 s | 51.7% and 51.7 ± 0.5% | 208.6% | 292.0% | 14.0 times | 15.73 ± 0.20 s | 41.6 s | 54.1 s | 10500 nM | 3.6 times | 137.5 ± 2.2 s | 10.5 times | 603.9 ± 14.2 s | 31.2 ± 1.3 s | 2.2 times | 41.0 ± 2.0 s | 12.8 times | did not change | prolongation of APTT relative to LPS-treated blood (LPS-treated PPP [2]; LPS-treated rabbit blood in vitro): 2.3 times; TT (LPS-treated PPP [3]; rabbit blood treated with LPS in vitro, 100 μM): 125.45 ± 1.54 s; lengthening of ecarin clotting time compared to control ([5]; 100 μM): 2.3 fold; effect on prothrombin time (coagulograms of rats [8]): did not change; TT (coagulograms of rats [10]; [14]): 566.1 ± 11.5 s; PT (coagulograms of rats [11]): 28.1 ± 1.0 s; effect on prothrombin time (coagulograms of rats [11]): neither the test compound nor dabigatran etexilate had an effect; Δ% of Thrombin Time Prolongation Relative to Control ([12]; 0.1 μM): 1.4 ± 0.4 %; Δ% of Thrombin Time Prolongation Relative to Control ([12]; 1 μM): 42.3 ± 5.6 %; Δ% of Thrombin Time Prolongation Relative to Control ([12]; 1 μM, listed as dabigatran etexilate): 42.3%; Δ% of Thrombin Time Prolongation Relative to Control ([12]; 5 μM): 176.1 ± 15.3 %; Δ% of Thrombin Time Prolongation Relative to Control ([12]; 5 μM, listed as dabigatran etexilate): 176.1%; thrombin time ([12]; 10 μM, intact PPP): 46.8 s; Δ% of Thrombin Time Prolongation Relative to Control ([12]; 10 μM): 302.0 ± 34.4 %; Δ% of Thrombin Time Prolongation Relative to Control ([12]; 10 μM, listed as dabigatran etexilate): 302.0%; increase of thrombin time relative to the control ([12]; rabbit blood in vitro, 100 μM): 6.0 times; TT ([12]; rabbit blood in vitro, 100 μM): 70.23 ± 3.15 s; EC50 [12]: 1.4 µM; effect on prothrombin time [13]: without changing the prothrombin time; PT [13]: 14.20 ± 0.38 s
